This note sets out measurements from patent US20130261077A1 (priority 2012, published 2013).

Each structure is given as a SMILES string.

The target of this experiment is T1, FimH-CRD (Escherichia coli, UniProt P08191).
T1 construct: The first 177 amino acids of the FimH protein; thrombin tag (printed as 'fusion protein with thrombin') (cleaved yes); made in house; host or cells: bacteria (pET21b plasmid)
T1 sequence (P08191 22-177): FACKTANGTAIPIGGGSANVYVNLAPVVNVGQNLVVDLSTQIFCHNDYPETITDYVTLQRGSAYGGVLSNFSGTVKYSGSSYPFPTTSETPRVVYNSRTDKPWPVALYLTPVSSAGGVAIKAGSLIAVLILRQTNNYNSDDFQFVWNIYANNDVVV
As to the kind of experiment: Competitive binding assay by fluorescence polarization, assay 2 (compounds prepared by robotics, plates frozen and thawed). In outline: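 Compounds at 0.4 nM–75 μM final (12 points, 3-fold steps, duplicate) compete with a 5 nM Alexa 647 mannoside probe for 60 nM FimH-CRD; 5 h room-temperature incubation in pH 7.0 Tris buffer with 2.5% DMSO, FP read-out, Kd from fitted curves. Assay 1 uses manual dilution, assay 2 robot-made frozen/thawed plates.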
(In fluorescence polarisation assays a small probe gives low polarisation when free and higher when bound to something large.)
Broadly, the Kd is the concentration at which binding is half-saturated. Read a low Kd as a tighter complex. Molecule `CNC(=O)c1ccc2nc(-c3cccc([C@H]4O[C@H](CO)[C@@H](O)[C@H](O)[C@@H]4O)c3)ccc2c1` [Compound 145, N-Methyl 2-[3-[(2R,3S,4R,5S,6R)-3,4,5-trihydroxy-6-(hydroxymethyl)tetrahydropyran-2-yl]phenyl]quinoline-6-carboxylate] showed a Kd of 22.4 ± 4.7 nM.

On to `OCc1nc2cc(-c3cccc([C@H]4O[C@H](CO)[C@@H](O)[C@H](O)[C@@H]4O)c3)ccc2[nH]1` [Compound 146, (2R,3S,4R,5S,6R)-2-(Hydroxymethyl)-6-[3-[2-(hydroxymethyl)-1H-benzimidazol-5-yl]phenyl]tetrahydropyran-3,4,5-triol], for which binding was characterised by a dissociation constant (Kd) of 27.8 ± 10.8 nM.

`OC[C@H]1O[C@H](c2cccc(-c3ccc4[nH]c(O)nc4c3)c2)[C@@H](O)[C@@H](O)[C@@H]1O` [Compound 147, (2R,3S,4R,5S,6R)-2-[3-(2-Hydroxy-1H-benzimidazol-5-yl)phenyl]-6-(hydroxymethyl)tetrahydropyran-3,4,5-triol] showed a Kd of 10.9 ± 4 nM.

Take `OC[C@H]1O[C@H](c2cccc(-c3ccc4[nH]c(C(F)(F)F)nc4c3)c2)[C@@H](O)[C@@H](O)[C@@H]1O` [Compound 148, (2R,3S,4R,5S,6R)-2-(Hydroxymethyl)-6-[3-[2-(trifluoromethyl)-1H-benzimidazol-5-yl]phenyl]tetrahydropyran-3,4,5-triol]: the Kd came out at 25.1 ± 12 nM.

For `CCCCn1cnc2ccc(-c3cccc([C@H]4O[C@H](CO)[C@@H](O)[C@H](O)[C@@H]4O)c3)cc21` [Compound 149, (2R,3S,4R,5S,6R)-2-[3-(3-Butylbenzimidazol-5-yl)phenyl]-6-(hydroxymethyl)tetrahydropyran-3,4,5-triol], the Kd is 19.8 ± 11.2 nM.

`Cc1nnc(-c2ccc(-c3cccc([C@H]4O[C@H](CO)[C@@H](O)[C@H](O)[C@@H]4O)c3)cc2F)o1` [Compound 150, (2R,3S,4R,5S,6R)-2-[3-[3-Fluoro-4-(5-methyl-1,3,4-oxadiazol-2-yl)phenyl]phenyl]-6-(hydroxymethyl)tetrahydropyran-3,4,5-triol] showed a dissociation constant (Kd) of 25.9 ± 5.1 nM.

Molecule `COC(=O)c1nc2cc(-c3cccc([C@H]4O[C@H](CO)[C@@H](O)[C@H](O)[C@@H]4O)c3)ccc2[nH]1` [Compound 151, Methyl 5-[3-[(2R,3S,4R,5S,6R)-3,4,5-trihydroxy-6-(hydroxymethyl)tetrahydropyran-2-yl]phenyl]-1H-benzimidazole-2-carboxylate] displayed a Kd of 37.8 ± 13.4 nM.

`CNC(=O)Cn1cnc2cc(-c3cccc([C@H]4O[C@H](CO)[C@@H](O)[C@H](O)[C@@H]4O)c3)ccc21` [Compound 152, N-Methyl-2-[5-[3-[(2R,3S,4R,5S,6R)-3,4,5-trihydroxy-6-(hydroxymethyl)tetrahydropyran-2-yl]phenyl]benzimidazol-1-yl]acetamide] registered a Kd of 43.8 ± 1.1 nM.

As for `O=C(O)c1cc(C(=O)O)cc(-c2cccc([C@H]3O[C@H](CO)[C@@H](O)[C@H](O)[C@@H]3O)c2)c1` [Compound 153, 5-[3-[(2R,3S,4R,5S,6R)-3,4,5-trihydroxy-6-(hydroxymethyl)tetrahydropyran-2-yl]phenyl]benzene-1,3-dicarboxylic acid], the Kd was determined as 88.7 ± 41.2 nM.

As for `CNC(=O)c1cccc(-c2ccc3cc([C@H]4O[C@H](CO)[C@@H](O)[C@H](O)[C@@H]4O)ccc3c2)c1` [Compound 154, N-methyl-3-[6-[(2R,3S,4R,5S,6R)-3,4,5-trihydroxy-6-(hydroxymethyl)tetrahydropyran-2-yl]-2-naphthyl]benzamide], the Kd turned out to be 18.4 ± 6.9 nM.

The molecule `OC[C@H]1O[C@H](c2ccc3cc(-c4cc(Cl)cc(Cl)c4)ccc3c2)[C@@H](O)[C@@H](O)[C@@H]1O` [Compound 155, (2R,3S,4R,5S,6R)-2-[6-(3,5-dichlorophenyl)-2-naphthyl]-6-(hydroxymethyl)tetrahydropyran-3,4,5-triol] registered a dissociation constant Kd of 71.7 ± 2 nM.

Take `OC[C@H]1O[C@H](c2ccc3cc(O)ccc3c2)[C@@H](O)[C@@H](O)[C@@H]1O` [Compound 156, (2R,3S,4R,5S,6R)-2-(hydroxymethyl)-6-(6-hydroxy-2-naphthyl)tetrahydropyran-3,4,5-triol]: binding was put at a Kd of 16.5 ± 4.3 nM.
